Measured values published in US10029992B2, “Diaminotriazine compounds and their use as herbicides” (BASF SE, priority 2014, dated 2018).

Experiments:
Test in all cases: Greenhouse experiment, pre-emergence treatment
ECHCG = format: in vivo, Echinochloa crus-galli; details: pre-emergence method
Excerpt: (§1) The culture containers used were plastic flowerpots containing loamy sand with approximately 3.0% of humus as the substrate. The seeds of the test plants were sown separately for each species.
(§2) For the pre-emergence treatment, the active ingredients, which had been suspended or emulsified in water, were applied directly after sowing by means of finely distributing nozzles. The containers were irrigated gently to promote germination and growth and subsequently covered with transparent plastic hoods until the plants had rooted. This cover caused uniform germination of the test plants, unless this had been impaired by the active ingredients.
(§3) Depending on the species, the plants were kept at 10-25° C. or 20-35° C., respectively.
(§4) The test period extended over 2 to 4 weeks. During this time, the plants were tended, and their response to the individual treatments was evaluated.
(§5) Evaluation was carried out using a scale from 0 to 100. 100 means no emergence of the plants, or complete destruction of at least the aerial moieties, and 0 means no damage, or normal course of growth. A moderate herbicidal activity is given at values of at least 60, a good herbicidal activity is given at values of at least 70, and a very good herbicidal activity is given at values of at least 85.
(§6) The plants used in the greenhouse experiments were of the following species: […]

APESV = format: in vivo, Apera spica-venti; details: pre-emergence method
Excerpt: as §1, §2, §3, §4, §5, §6

ABUTH = format: in vivo, Abutilon theophrasti; details: pre-emergence method
Excerpt: as §1, §2, §3, §4, §5, §6

SETFA = format: in vivo, Setaria faberi; details: pre-emergence method
Excerpt: (§7) The seeds of the test plants were sown separately for each species. For the pre-emergence treatment, the active ingredients, which had been suspended or emulsified in water, were applied directly after sowing by means of finely distributing nozzles. The containers were irrigated gently to promote germination and growth and subsequently covered with transparent plastic hoods until the plants had rooted. This cover caused uniform germination of the test plants, unless this had been impaired by the active ingredients. Depending on the species, the plants were kept at 10-25° C. or 20-35° C., respectively. The test period extended over 2 to 4 weeks. During this time, the plants were tended, and their response to the individual treatments was evaluated. Evaluation was carried out using a scale from 0 to 100. 100 means no emergence of the plants, or complete destruction of at least the aerial moieties, and 0 means no damage, or normal course of growth. A moderate herbicidal activity is given at values of at least 60, a good herbicidal activity is given at values of at least 70, and a very good herbicidal activity is given at values of at least 85. […] [table]

AMARE = format: in vivo, Amaranthus retroflexus; details: pre-emergence method; for herbicidal activity against AMARA: application rate 125 g/ha
Excerpt: as §7

With Cc1cc(C)cc(Oc2cccc(C#N)c2Nc2nc(N)nc(C(C)(C)F)n2)c1 [Example 100] the “herbicidal activity against ECHCG” value (ECHCG; application rate 250 g/ha) was “very good (a very good herbicidal activity is given at values of at least 85)”, the “herbicidal activity against APESV” value (APESV; application rate 250 g/ha) was “very good (a very good herbicidal activity is given at values of at least 85)” and the “herbicidal activity against ABUTH” value (ABUTH; application rate 250 g/ha) was “good (a good herbicidal activity is given at values of at least 70)”.

For Cc1cc(C)cc(Oc2cccc(F)c2Nc2nc(N)nc(C3(F)CCCC3)n2)c1 [Example 96], the “herbicidal activity against SETFA” value (SETFA; application rate 500 g/ha) was “very good (a very good herbicidal activity is given at values of at least 85)”, the “herbicidal activity against ECHCG” value (ECHCG; application rate 500 g/ha) was “very good (a very good herbicidal activity is given at values of at least 85)” and the “herbicidal activity against ABUTH” value (ABUTH; application rate 500 g/ha) was “very good (a very good herbicidal activity is given at values of at least 85)”.

For CC(C)(F)c1nc(N)nc(Nc2c(F)cccc2Oc2cccc(OC(F)(F)F)c2)n1 [Example 97], the “herbicidal activity against SETFA” value (SETFA; application rate 500 g/ha) was “very good (a very good herbicidal activity is given at values of at least 85)”, the “herbicidal activity against ECHCG” value (ECHCG; application rate 500 g/ha) was “very good (a very good herbicidal activity is given at values of at least 85)” and the “herbicidal activity against ABUTH” value (ABUTH; application rate 500 g/ha) was “very good (a very good herbicidal activity is given at values of at least 85)”.

For Cc1cc(C)cc(Sc2cccc(F)c2Nc2nc(N)nc(C(C)(C)F)n2)c1 [Example 2], the “herbicidal activity against ABUTH” value (ABUTH; application rate 1000 g/ha) was “good (a good herbicidal activity is given at values of at least 70)”.

In the case of Cc1cc(C)cc(Oc2cccc(F)c2Nc2nc(N)nc(C(C)F)n2)c1 (stereo not shown) [Example 11], the “herbicidal activity against SETFA” value (SETFA; application rate 0.125 kg/ha) is reported as “very good (a very good herbicidal activity is given at values of at least 85)”, the “herbicidal activity against ECHCG” value (ECHCG; application rate 0.125 kg/ha) is reported as “very good (a very good herbicidal activity is given at values of at least 85)” and the “herbicidal activity against ABUTH” value (ABUTH; application rate 0.125 kg/ha) is reported as “very good (a very good herbicidal activity is given at values of at least 85)”.

With Cc1cc(C)cc(Oc2cccc(F)c2Nc2nc(N)nc(C(C)(C)F)n2)c1 [Example 5] the “herbicidal activity against SETFA” value (SETFA; application rate 0.25 kg/ha) was “very good (a very good herbicidal activity is given at values of at least 85)”, the “herbicidal activity against ECHCG” value (ECHCG; application rate 0.25 kg/ha) was “very good (a very good herbicidal activity is given at values of at least 85)” and the “herbicidal activity against ABUTH” value (ABUTH; application rate 0.25 kg/ha) was “very good (a very good herbicidal activity is given at values of at least 85)”.

In the case of CC(C)(F)c1nc(N)nc(Nc2c(F)cccc2Oc2cc(F)cc(OC(F)F)c2)n1 [Example 82], the “herbicidal activity against SETFA” value (SETFA; application rate 125 g/ha) is reported as “very good (a very good herbicidal activity is given at values of at least 85)”, the “herbicidal activity against AMARA” value (AMARE) is reported as “very good (a very good herbicidal activity is given at values of at least 85)” and the “herbicidal activity against ABUTH” value (ABUTH; application rate 125 g/ha) is reported as “very good (a very good herbicidal activity is given at values of at least 85)”.

In the case of Cc1cc(OCC(F)(F)F)cc(Oc2cccc(F)c2Nc2nc(N)nc(C(C)(C)F)n2)c1 [Example 81], the “herbicidal activity against SETFA” value (SETFA; application rate 125 g/ha) is reported as “very good (a very good herbicidal activity is given at values of at least 85)”, the “herbicidal activity against AMARA” value (AMARE) is reported as “very good (a very good herbicidal activity is given at values of at least 85)” and the “herbicidal activity against ABUTH” value (ABUTH; application rate 125 g/ha) is reported as “good (a good herbicidal activity is given at values of at least 70)”.

For Cc1cc(C)cc(Oc2cccc(F)c2Nc2nc(N)nc(C(C)(C)C)n2)c1 [Example 16], the “herbicidal activity against AMARE” value (AMARE; application rate 2000 g/ha) was “very good (a very good herbicidal activity is given at values of at least 85)”, the “herbicidal activity against APESV” value (APESV; application rate 2000 g/ha) was “very good (a very good herbicidal activity is given at values of at least 85)” and the “herbicidal activity against ABUTH” value (ABUTH; application rate 2000 g/ha) was “very good (a very good herbicidal activity is given at values of at least 85)”.

With CC(C)c1cccc(Oc2cccc(F)c2Nc2nc(N)nc(C(C)(C)F)n2)c1 [Example 89] the “herbicidal activity against ECHCG” value (ECHCG; application rate 500 g/ha) was “very good (a very good herbicidal activity is given at values of at least 85)”, the “herbicidal activity against APESV” value (APESV; application rate 500 g/ha) was “very good (a very good herbicidal activity is given at values of at least 85)” and the “herbicidal activity against ABUTH” value (ABUTH; application rate 500 g/ha) was “very good (a very good herbicidal activity is given at values of at least 85)”.

With Cc1cc(C)cc(Oc2cccc(F)c2Nc2nc(N)nc(C3CCCCC3)n2)c1 [Example 15] the “herbicidal activity against ABUTH” value (ABUTH; application rate 1000 g/ha) was “very good (a very good herbicidal activity is given at values of at least 85)”.

CC(C)(F)c1nc(N)nc(Nc2c(F)cccc2Oc2cc(F)cc(F)c2)n1 [Example 24] was tested, and the “herbicidal activity against ECHCG” value (ECHCG; application rate 0.25 kg/ha) was “very good (a very good herbicidal activity is given at values of at least 85)”, the “herbicidal activity against APESV” value (APESV; application rate 0.25 kg/ha) was “very good (a very good herbicidal activity is given at values of at least 85)” and the “herbicidal activity against ABUTH” value (ABUTH; application rate 0.25 kg/ha) was “very good (a very good herbicidal activity is given at values of at least 85)”.

With CC(C)(F)c1nc(N)nc(Nc2c(F)cccc2Oc2cc(Cl)cc(Cl)c2)n1 [Example 13] the “herbicidal activity against SETFA” value (SETFA; application rate 0.25 kg/ha) was “very good (a very good herbicidal activity is given at values of at least 85)”, the “herbicidal activity against AMARE” value (AMARE; application rate 0.25 kg/ha) was “very good (a very good herbicidal activity is given at values of at least 85)” and the “herbicidal activity against APESV” value (APESV; application rate 0.25 kg/ha) was “very good (a very good herbicidal activity is given at values of at least 85)”.

In the case of Cc1cccc(Oc2cccc(F)c2Nc2nc(N)nc(C(C)(C)F)n2)c1 [Example 7], the “herbicidal activity against ECHCG” value (ECHCG; application rate 0.5 kg/ha) is reported as “good to very good”, the “herbicidal activity against AMARE” value (AMARE; application rate 0.5 kg/ha) is reported as “good to very good” and the “herbicidal activity against ABUTH” value (ABUTH; application rate 0.5 kg/ha) is reported as “good to very good”.

For Cc1cc(Cl)cc(Oc2cccc(F)c2Nc2nc(N)nc(C(C)(C)F)n2)c1 [Example 28], the “herbicidal activity against SETFA” value (SETFA; application rate 0.25 kg/ha) was “very good (a very good herbicidal activity is given at values of at least 85)”, the “herbicidal activity against APESV” value (APESV; application rate 0.25 kg/ha) was “very good (a very good herbicidal activity is given at values of at least 85)” and the “herbicidal activity against ABUTH” value (ABUTH; application rate 0.25 kg/ha) was “very good (a very good herbicidal activity is given at values of at least 85)”.

CC(C)(F)c1nc(N)nc(Nc2c(F)cccc2Oc2cc(C(F)(F)F)cc(C(F)(F)F)c2)n1 [Example 12] was tested, and the “herbicidal activity against SETFA” value (SETFA; application rate 0.25 kg/ha) was “very good (a very good herbicidal activity is given at values of at least 85)”, the “herbicidal activity against AMARE” value (AMARE; application rate 0.25 kg/ha) was “very good (a very good herbicidal activity is given at values of at least 85)” and the “herbicidal activity against APESV” value (APESV; application rate 0.25 kg/ha) was “very good (a very good herbicidal activity is given at values of at least 85)”.

For Cc1cc(C)cc(Oc2cc(F)c(F)c(Nc3nc(N)nc(C(C)(C)F)n3)c2F)c1 [Example 43], the “herbicidal activity against SETFA” value (SETFA; application rate 0.5 kg/ha) was “good to very good”, the “herbicidal activity against AMARE” value (AMARE; application rate 0.5 kg/ha) was “good to very good” and the “herbicidal activity against ABUTH” value (ABUTH; application rate 0.5 kg/ha) was “good to very good”.

COC(C)c1nc(N)nc(Nc2c(F)cccc2Oc2cc(C)cc(C)c2)n1 (stereo not shown) [Example 39] was tested, and the “herbicidal activity against APESV” value (APESV; application rate 1000 g/ha) was “very good (a very good herbicidal activity is given at values of at least 85)” and the “herbicidal activity against ABUTH” value (ABUTH; application rate 1000 g/ha) was “very good (a very good herbicidal activity is given at values of at least 85)”.

With CC(C)(F)c1nc(N)nc(Nc2c(F)c(F)cc(Oc3ccccc3)c2F)n1 [Example 42] the “herbicidal activity against ECHCG” value (ECHCG; application rate 0.5 kg/ha) was “good to very good”, the “herbicidal activity against AMARE” value (AMARE; application rate 0.5 kg/ha) was “good to very good” and the “herbicidal activity against ABUTH” value (ABUTH; application rate 0.5 kg/ha) was “good to very good”.
